Experimental data taken from patent US20230348852A1, “METHODS AND COMPOSITIONS FOR OCULAR CELL THERAPY” (NOVARTIS AG, priority 2020, published 2023).
Entries after “also recorded” stand apart in the source; their conditions may differ.

Experiments:
[1] = tested on: human limbal stem cells; assay: Human limbal stem cell population expansion and measurement (expansion factor, p63alpha-positive cells); type: cell-based; conditions: 10 micromolar in XVIVO15 medium, two passages; for Expansion factor: ratio of expanded population to seeded cells; for Percentage of p63a-positive cells: share of Sytox Orange-positive nuclei expressing p63alpha
Description: Cells were cultured at 37° C. in 5% CO2.
For each compound, two sets of cultures were generated. A first set of cultures was fixed in 4% PFA for 20 minutes at room temperature after cells isolated from the cornea had attached to the cell culture dish (typically 24 h after cell plating). A second set of cultures was fixed in 4% PFA for 20 minutes at room temperature after being cultured for two passages. Cells were passaged when they reached 90-100% confluence.
In order to observe that the expanded cell population expressed p63alpha, this was measured by immunohistochemistry as follows. The fixed cell cultures were permeabilized and blocked in a blocking solution of 0.3% Triton X-100 (Sigma-Aldrich) and 3% donkey serum in PBS for 30 minutes. Cells were then labeled with primary antibody in the blocking solution for 12 hours at 4° C. Primary antibody used was p63alpha from Cell Signalling. Samples were washed in PBS three times and donkey-raised secondary antibody Alexa Fluor 488 (Molecular Probes) at 1:500 dilution were applied for 30 minutes at room temperature. Cell nuclei were then labeled in a solution of 0.5 micromolar of Sytox Orange (ThermoFisher) in PBS for 5 minutes at room temperature.
To evaluate the percentage of p63alpha-positive cells, the number of cells labeled by the anti-p63alpha antibody was counted and the total number of cells was determined by counting the number of nuclei stained by Sytox Orange. The proportion of p63alpha-positive cells was then determined by calculating the percentage of Sytox-orange-positive nuclei that also expressed p63alpha.
To evaluate cell expansion ratios, nuclei were counted using a Zeiss LSM 880 confocal microscope. The expansion factor was then determined by calculating the ratio of the expanded population of cells to population of seeded cells.

[2] = tested on: YAP; assay: Intracellular YAP distribution by immunohistochemistry in LSCs exposed to LATS inhibitors; type: cell-based, human; conditions: 10 micromolar, 24 hours, compared with DMSO control
Description: Cells were cultured under these conditions for 24 hours at 37° C. in 5% CO2.
To measure the effect of the LATS inhibitors on the downstream target YAP, intracellular YAP distribution was analyzed by immunohistochemistry. Cell cultures were fixed with 4% PFA for 20 minutes, permeabilized and blocked in a blocking solution of 0.3% Triton X-100 (Sigma-Aldrich) and 3% donkey serum in PBS for 30 minutes. Cells were then labeled with primary antibody in the blocking solution for 12 hours at 4° C. Primary antibody used was anti-YAP from Santa Cruz Biotechnology. Samples were washed in PBS three times and donkey-raised secondary antibody Alexa Fluor 488 (Molecular Probes) at 1:500 dilution were applied for 30 minutes at room temperature. […] Fluorescence was observed using a Zeiss LSM 880 confocal microscope.

[3] = tested on: human limbal stem cells; assay: Human limbal stem cell population expansion and immunohistochemical observation of p63alpha phenotype; type: cell-based; conditions: for colony formation and p63alpha expression: 10 micromolar, 6 days after isolation without passaging, DMSO as negative control
Description: Cells were first cultured at 37° C. in 5% CO2 for 6 days after isolation without passaging (FIGS. 2A, 2B and 2C).
To evaluate the ability of the compounds to enable LSC expansion after two passages, LSCs were passaged and cultured for two weeks in the presence of compound example 3 to enable expansion (FIG. 2D). Limbal stem cells (LSCs) were passaged by treating cultures with Accutase for 10 minutes at 37° C., rinsing the cell suspension by centrifugation and plating cells in fresh LSC culture medium supplemented with LATS inhibitor compound example 3.
In order to observe that the expanded cell population expressed p63alpha, this was measured by immunohistochemistry as follows. Cell cultures were fixed with 4% PFA for 20 minutes, permeabilized and blocked in a blocking solution of 0.3% Triton X-100 (Sigma-Aldrich) and 3% donkey serum in PBS for 30 minutes. Cells were then labeled with primary antibody in the blocking solution for 12 hours at 4° C. Primary antibody used was p63alpha from Cell Signalling. Samples were washed in PBS three times and donkey-raised secondary antibody Alexa Fluor 488 (Molecular Probes) at 1:500 dilution were applied for 30 minutes at room temperature. Cells were counter-stained with a human nuclear antigen antibody (Millipore) at a 1:500 dilution in order to label all cells in the culture and confirm their human identity. […] Fluorescence was observed using a Zeiss LSM 880 confocal microscope.

[4] = tested on: phospho-YAP (ser127); assay: YAP phosphorylation by Western blot in LSCs exposed to LATS inhibitors; type: cell-based, human; conditions: 10 micromolar, 1 hour, DMSO as negative control
Description: The medium was then replaced by fresh limbal epithelium cell culture medium (DMEM F12 supplemented with 10% human serum and 1.3 mM calcium chloride) supplemented with LATS inhibitor compound example no. […] Cells were cultured under these conditions for 1 hour at 37° C. in 5% CO2.
To measure the effect of the LATS inhibitors on the downstream target YAP, the YAP phosphorylation levels were measured by western blot as follows. The cell pellets were obtained by trypsin dissociation and centrifugation and washed with PBS. The pellets were lysed with 30 microlitres of RIPA lysis buffer containing protease inhibitor cocktail (Life Technologies) for 30 minutes, with vortexing every 10 minutes. The cell debris were then pelleted at 4° C. for 15 minutes at 14 k rpm and the protein lysate was collected. Protein concentration was quantified using a micro BCA kit (Pierce). Fifteen micrograms of total protein was loaded in each well of 4-20% TGX gels (BioRad) and Western blotting was performed according to the manufacturer’s instructions. […] Membranes were stained with HRP-conjugated secondary antibodies, rinsed and imaged using a ChemiDoc system (Biorad) according to the manufacturer’s instructions.

[5] = tested on: human lymphoblastoid TK6 cells; assay: In vitro TK6 micronucleus assay; type: cell-based; conditions: for Conclusion TK6 MNT screen result: 30+0 hour -S-9 up to limit of cytotoxicity, 3+27 hours +S-9 up to 1 mM
Description: An in vitro TK6 Micronucleus Assay was performed to evaluate the clastogenic and aneugenic potential of a LATS inhibitor by its effects on the frequency of micronuclei in cultured human lymphoblastoid TK6 cells treated for 30 hours with no recovery in the absence of an Aroclor-induced rat liver metabolizing system (S-9) (30+0 hour -S-9) and for 3 hours in the presence of S-9 with 27 hours of recovery (3+27 hours +S-9).
TK6 cells were cultured in HEPES-buffered RPMI 1640 medium with GlutaMAXTM-1 including 10% (v/v) heat inactivated foetal calf serum, 100 Units/mL/100 µg/mL penicillin / streptomycin. Liver S-9 mix from male rats induced with Aroclor 1254 was added as a 10% S-9 mix to achieve a final concentration of 1% in the test system. […] Standard vehicle used was DMSO.
For valid data, the test item was considered to induce clastogenic and/or aneugenic events if: • A statistically significant increase in the frequency of micronucleated mononucleate (MNMON) cells at one or more concentrations was observed • An incidence of MNMON cells at such a concentration exceeded the normal range in both replicate cultures was observed • A concentration-related increase in the proportion of MNMON cells was observed (positive trend test).
The test item was considered positive in this assay if all of the above criteria were met. The test item was considered negative in this assay if none of the above criteria were met.

[6] = tested on: Salmonella typhimurium (TA98 and TA100); assay: Bacterial reverse mutation assay (6-well Ames screen); type: cell-based; conditions: TA98 and TA100, absence or presence of rat liver S-9 mix, maximum concentration 500 µg/well
Description: A Bacterial Reverse Mutation Assay (“Ames Test”) was performed to evaluate the mutagenic potential of a LATS inhibitor by its effects on one or more histidine-requiring strains of Salmonella typhimurium (TA98 and TA100.) in the absence and presence of a liver metabolizing system.
The 6-well plate Ames test is a miniaturized screening version of the original test using smaller volumes and test item amounts, see e.g. P.A. Escobar et al. (2013), Mut. Res. 752, 99-118. The highest concentration of 500 µg/well used in this 6-well Ames screen corresponds to about the top concentration of […] in the standard Ames test. Liver S-9 mix from male rats induced with Aroclor 1254 was added as a 5% S-9 mix to the test system. […] Standard vehicle used was DMSO.
The test article was regarded positive in this assay if this criterion is met, otherwise it was regarded as negative.

[7] = +S-9, 3+27 hours, 337.0 µg/mL (approximately 1 mM)
[8] = +S-9, any concentration up to 337.0 µg/mL
[9] = -S-9, any concentration up to 40.00 µg/mL

| SMILES | Expansion factor [1] | Percentage of p63a-positive cells [1] [%] | YAP immunostaining in the nucleus of LSCs [2] | colony formation and p63alpha expression [3] | cell population expansion and p63alpha expression after passaging ([3]; passaged and cultured for two weeks in the presence of the compound) | YAP phosphorylation levels in human LSCs (Western blot) [4] | YAP phosphorylation levels in human LSCs (Western blot) ([4]; listed as ex. 3) | YAP phosphorylation levels in human LSCs (Western blot) ([4]; listed as ex. 4) | Conclusion TK6 MNT screen result ([5]; listed as dimethyl(3-methyl-3-{[2-(pyridin-4-yl)pyrido[3,4-d]pyrimid in-4-yl]amino}butyl)a) | Conclusion TK6 MNT screen result ([5]; listed as dimethyl(3-methyl-3-{[2-(pyridin-4-yl)pyrido[3,4-d]pyrimidin-4-yl]amino}butyl)am) | cytotoxicity [5, 7] [%] | increases in micronucleated mononucleate (MNMON) cells [5, 8] | cytotoxicity ([5]; -S-9, 30 hours, 40.00 µg/mL) [%] | increases in micronucleated mononucleate (MNMON) cells [5, 9] | AMES screen result [6] | Conclusion TK6 MNT screen result [5] |
| --- | --- | --- | --- | --- | --- | --- | --- | --- | --- | --- | --- | --- | --- | --- | --- | --- |
| CC(C)(O)CC(C)(C)Nc1nc(-c2ccncc2)nc2cnccc12 [Example 3, 2,4-dimethyl-4-{[2-(pyridin-4-yl)pyrido[3,4-d]pyrimidin-4-yl]amino}pentan-2-ol] | 2029 | 92 | stronger in the nucleus | formed colonies and expressed p63alpha | enabled cell population expansion and the formation of confluent cultures expressing p63alpha | reduction in YAP phosphorylation levels | induce YAP dephosphorylation in LSCs within one hour | – | – | – | – | – | – | – | – | – |
| Cc1n[nH]cc1-c1nc(NC2(C)CC2)c2ccncc2n1 [Example 4, 2-(3-methyl-1H-pyrazol-4-yl)-N-(1-methylcyclopropyl)pyrido[3,4-d]pyrimidin-4-amine] | 1205 | 89 | stronger in the nucleus | formed colonies and expressed p63alpha | – | reduction in YAP phosphorylation levels | – | induce YAP dephosphorylation in LSCs within one hour | – | – | – | – | – | – | – | – |
| CN(C)CCC(C)(C)Nc1nc(-c2ccncc2)nc2cnccc12 [Example 5, Dimethyl(3-methyl-3-{[2-(pyridin-4-yl)pyrido[3,4-d]pyrimidin-4-yl]amino}butyl)amine] | – | – | – | – | – | – | – | – | “negative” | did not induce micronuclei | 39 | No statistically significant (p≤0.05) increases | 58 | No statistically significant (p≤0.05) increases | did not show evidence of a mutagenic potential; also recorded: “negative” | – |
| Cc1n[nH]cc1-c1nc(NC(C)(C)CCN(C)C)c2ccncc2n1 [Example 6, N^1,N^1,3-trimethyl-N^3-(2-(3-methyl-1H-pyrazol-4-yl)pyrido[3,4-d]pyrimidin-4-yl)butane-1,3-diamine] | – | – | – | – | – | – | – | – | – | – | 33 | No statistically significant (p≤0.05) increases | 57 | No statistically significant (p≤0.05) increases | did not show evidence of a mutagenic potential; also recorded: “negative” | did not induce micronuclei; also recorded: “negative” |
